Like-named read-outs stand apart in the source and are kept apart here.
What was measured:
six human PDA cell lines = assay: Cell proliferation in six human PDA cell lines; format: cell-based
Procedure: AsPC-1, BxPC-3, Capan-1, HPAF-II, MIA PaCa-2 and PANC-1 cells were seeded in 96-well plates and allowed to adhere overnight. After 24 h fresh media was added containing 0.5-10 μM concentrations of (S,S)-(HO)2DEHSPM alone or +0.5 μM GEM, +5 nM NAB, or + both, or containing GEM, NAB or GEM+NAB alone. Cell proliferation was measured in triplicate 24, 48, 72 and 96 h post-treatment and IC50 values were calculated.

[1] = Phase 1 monotherapy dose escalation study, pharmacokinetics; format: in vivo, human; conditions: 0.05-0.8 mg/kg subcutaneous; Days 1 and 18 of cycle 1
[2] = Phase 1a/1b study in combination with G and A, pharmacokinetics; format: in vivo, human; conditions: for Cmax / Tmax: human, plasma, subcutaneous
Procedure: G (1000 mg/m^2) and A (125 mg/m^2) were administered intravenously on Days 1, 8, and 15 of each cycle. […] PK was evaluated on day 1 of cycle 1. Efficacy was assessed by CA19-9 levels, objective response was assessed by RECIST criteria, progression-free survival (PFS) and overall survival (OS).
This is a multicenter, open label, Phase 1a/1b study to evaluate to evaluate the safety, tolerability, pharmacokinetics and efficacy of (S,S)-(HO)2DEHSPM when administered in combination with G and A as first-line therapy in pancreatic cancer patients previously untreated for metastatic disease. The objective was to determine a recommended Phase 2 dose. Using a modified 3+3 dose escalation scheme, cohorts of subjects were dosed with subcutaneous injections of (S,S)-(HO)2DEHSPM at 0.2, 0.4 or 0.6 mg/kg days 1-5 of each 28-day cycle. Gemcitabine (1000 mg/m^2) and A (125 mg/m^2) were administered intravenously on Days 1, 8, and 15 of each cycle. […] PK was evaluated on day 1 of cycle 1. Efficacy was assessed by objective response rate (ORR) using RECIST criteria and by changes in CA19-9 levels. Subjects were treated until disease progression or the development of dose-limiting toxicity. Based upon initial safety findings and preliminary signals of efficacy, the protocol was amended to evaluate progression-free survival (PFS) and overall survival (OS) and expand the study to up to 36 subjects at the recommended Phase 2 dose. To date, 20 subjects were enrolled in cohorts 1-3 and evaluated for dose limiting toxicity and early signals of efficacy.

[3] = Phase 1a/1b Cohort 4, shortened daily/periodic dosing regimen, liver toxicity; format: in vivo, human; conditions: Cohort 4 regimen vs reference dosing regimen, particularly Cohort 3
Procedure: As part of the same study described in Example 4, one cohort of patients (Cohort 4) was administered a combination shortened daily dosing regimen/periodic dosing regimen and liver toxicities were compared to the reference dosing regimen described in Example 4.
Cohort 4 was administered 0.4 mg/kg/day of (S,S)-(HO)2DEHSPM for 5 consecutive days (for a total of 5 doses/cycle) beginning on day 1 (i.e. days 1-5) of each of Cycles 1 and 2. Thereafter Cohort 4 was administered 0.4 mg/kg/day of (S,S)-(HO)2DEHSPM on Days 1, 8 and 15 beginning on day 1 of Cycle 3 (for a total of 3 doses per cycle) and continuing for each cycle thereafter. Cohort 4 patients were treated for 3 to 6 or more total cycles depending on the individual patient's tolerance of treatment.

[4] = Phase 1 monotherapy dose escalation study, safety and tolerability
Procedure: Safety and tolerability were evaluated by clinical and laboratory assessments. PK was evaluated on Days 1 and 18 of cycle 1. Efficacy was assessed by RECIST criteria and overall survival.

[5] = tested on: human L3.6pl pancreatic cancer cells; assay: Orthotopic implantation of L3.6pl pancreatic cancer cells into nude mice; conditions: for Median survival: control group 21 days
Procedure: These studies examined the anti-neoplastic effects of subcutaneous administration of (S,S)-(HO)2DEHSPM following orthotopic implantation of human L3.6pl pancreatic cancer cells into the pancreas of nude mice.
L3.6pl cells were injected into the pancreas of nude mice; treatment was initiated by group (n=10/group planned) 7-10 days later following establishment of tumors:
Study 1: saline (control), (S,S)-(HO)2DEHSPM (25 mg/kg), (S,S)-(HO)2DEHSPM (50 mg/kg), and (S,S)-(HO)2DEHSPM (100 mg/kg) daily (QD) for 4 to 6 weeks (wks).
Study 2: saline (control), (S,S)-(HO)2DEHSPM (25 mg/kg QD), (S,S)-(HO)2DEHSPM (25 mg/kg 3×/wk), (S,S)-(HO)2DEHSPM (15 mg/kg 3×/wk), and (S,S)-(HO)2DEHSPM (5 mg/kg 3×/wk) for 4 to 6 wks.
Study 3: saline (control), gemcitabine (GEM) (100 mg/kg 2×/wk, intraperitoneally), (S,S)-(HO)2DEHSPM (25 mg/kg 3×/wk), and (S,S)-(HO)2DEHSPM+GEM for 4 to 6 wks.

[6] = Study 3, compared with controls, GEM 100 mg/kg 2×/wk ip, (S,S)-(HO)2DEHSPM 25 mg/kg 3×/wk

SMILES: CCNCCC(O)CNCCCCNCC(O)CCNCC [(S,S)-(HO)2DEHSPM, (6S,15S)-3,8,13,18-teraazaicosane-6,15-diol]
- anti-proliferative effect (six human PDA cell lines; 0.5-10 μM, maximal inhibition most often with 10 μM): anti-proliferative effect in all cell lines
- inhibition by (S,S)-(HO)2DEHSPM alone compared with GEM+NAB (six human PDA cell lines; ASPC-1, BxPC-3 and Capan-1 cells, p<0.005): greater inhibition than GEM+NAB
- Plasma Cmax and AUC0-t versus dose [1]: increased linearly with dose
- PK parameters ([2]; cohort 1 (0.2 mg/kg), day 1 of cycle 1): below the limits of detection at most time points
- Cmax ([2]; sc, Cohort 1 (0.2 mg/kg) N=4, day 1 of cycle 1, read-out: Cmax Mean): 26.6 ng/mL
- Cmax ([2]; sc, Cohort 2 (0.4 mg/kg) N=7, day 1 of cycle 1, read-out: Cmax Mean): 115 ng/mL
- Cmax ([2]; sc, Cohort 3 (0.6 mg/kg) N=5, day 1 of cycle 1, read-out: Cmax Mean): 147 ng/mL
- Tmax ([2]; Cohort 1 (0.2 mg/kg) N=4): 30 min
- Cmax ([2]; Cohort 1 (0.2 mg/kg) N=4, read-out: Cmax Range): 13.2 to 41.6 ng/mL
- Tmax ([2]; Cohort 2 (0.4 mg/kg) N=7): 30 min
- Cmax ([2]; Cohort 2 (0.4 mg/kg) N=7, read-out: Cmax Range): 77.1 to 167 ng/mL
- Tmax ([2]; Cohort 3 (0.6 mg/kg) N=5): 30 min
- Cmax ([2]; Cohort 3 (0.6 mg/kg) N=5, read-out: Cmax Range): 91.9 to 195 ng/mL
- severe liver toxicities compared to cohorts of Example 4 [3]: unexpectedly reduced or eliminated
- drug-related bone marrow suppression or peripheral neuropathy ([4]; any dose): No drug-related bone marrow suppression or peripheral neuropathy was seen at any dose
- focal pancreatitis at the site of the tumor ([4]; cohort 4 (0.4 mg/kg), at 2.3 months): one patient in cohort 4 developed focal pancreatitis
- DLTs ([4]; cohort 5 (0.8 mg/kg), N=10): Three patients in cohort 5 developed serious adverse events considered dose limiting toxicities
- DLTs ([4]; cohorts 1-4 (0.05-0.4 mg/kg)): No DLTs occurred
- drug-related serious adverse events (SAEs) or dose limiting toxicities (DLTs) ([4]; up to 0.4 mg/kg/day Monday through Friday×3 weeks (TCD~6 mg/kg per 8 week cycle)): No drug-related serious adverse events (SAEs) or dose limiting toxicities (DLTs) were observed
- reduction in pancreas weight ([5]; Study 1, 25 mg/kg QD subcutaneous, 4 to 6 wks, tumor bearing mice): 82.9%
- toxicity / deaths ([5]; Study 1, 50 and 100 mg/kg QD): earlier deaths and proved to be toxic
- decreases in pancreas weight and tumor volume ([5]; Study 2, 5 mg/kg 3×/wk): no decreases were noted
- decrease in pancreas weight ([5]; Study 2, 15 mg/kg 3×/wk): 20.1%
- decrease in tumor volume ([5]; Study 2, 15 mg/kg 3×/wk): 52.6%
- reduction in pancreas weight ([5]; Study 2, 25 mg/kg 3×/wk): 47.8%
- reduction in tumor volume ([5]; Study 2, 25 mg/kg 3×/wk): 66.6%
- Median survival ([5]; Study 2, 25 mg/kg 3×/wk): 42 days
- reduction in pancreas weight ([5]; Study 2, 25 mg/kg QD): 72.7%
- reduction in tumor volume ([5]; Study 2, 25 mg/kg QD): 81.4%
- Median survival ([5]; Study 2, 25 mg/kg QD): 32 days
- decreases in body weight ([5]; Study 3, GEM 100 mg/kg 2×/wk ip, (S,S)-(HO)2DEHSPM 25 mg/kg 3×/wk, 4 to 6 wks): 35.6%
- decreases in pancreas weight [5, 6]: 58.8%
- decreases in tumor volume [5, 6]: 58.4%

— patent US20230064990A1, “DOSING REGIMENS AND METHODS FOR TREATING CANCER” (Panbela Therapeutics, Inc., priority 2020, published 2023)
